Test results reported in publication PMC3334918, “Mutagenesis and Functional Studies with Succinate Dehydrogenase Inhibitors in the Wheat Pathogen Mycosphaerella graminicola” (PLoS ONE, 2012).

Columns and labels:
[1] = system: M. graminicola WT (IPO323); experiment: microbe, parasite or virus in culture; format: cell-based, Mycosphaerella graminicola
Experimental: (§1) To explore the sensitivity profiles conferred by amino acid substitutions at the cellular and mitochondrial level, we determined sensitivity towards 4 different compounds for 26 of the identified substitution types both in vivo using liquid culture growth (AE media) and in vitro using purified mitochondria and the succinate: Q0/DCPIP activity test (Table 3). […] Resistance factors (RF) were determined as the ratio IC50mutant/IC50WT. […] Qp site mutations are well known to influence SDH enzyme activity and stability upon catalysis, [13], [38], [41].
Conidial cells were collected from 4 day old V8 agar plates (cultured at 18°C in the dark) using liquid AE and a cell spreader. Cell density was determined and cells re-suspended to a concentration of 5×10^5 cells ml^−1 in AE media. Sterile 96 wells microtiter plates with lids (Costar) were inoculated with 198 µl of this cell suspension (10^5 cells per well) and 2 µl of inhibitor (100× in DMSO). Final inhibitor concentrations were between 0.95 nM and 1 mM with uniform 4× dilution factor steps (11 inhibitor concentrations+1 DMSO control). Plates were incubated for 6 days at 19°C in the dark before cells were re-suspended and measured for growth (OD600 nm). IC50 values were determined by non linear curve fitting on the basis of measured OD values versus log inhibitor concentrations (GraphPad Prism 5.0 software).

[2] = biological target: succinate dehydrogenase (SDH), WT (IPO323) (Zymoseptoria tritici (Mycosphaerella graminicola), UniProt F9X9V6+F9XG45+F9XH52); experiment: in vitro succinate: Q0/DCPIP activity test, purified mitochondria; format: biochemical; settings: ±S.E. (triplicate), read-out: IC50 in vitro
Experimental: as §1
Strains were grown in 1 liter TSM40 units. Cultures were inoculated at 0.05 OD600 nm and grown on a reciprocal shaker (110 rpm, 22°C) for 5 days. Cells were harvested by vacuum filtration and disrupted in liquid nitrogen using a mortar and pestle. Resultant powder was re-suspended to 10% w/v in mitochondrial extraction buffer (10 mM KHPO4 pH7.2; 10 mM KCl, 10 mM MgCl2, 0.5 M sucrose, 0.2 mM EDTA, 2 mM PMSF). Extract was clarified by centrifugation (5,000 g, 4°C for 10 minutes, 2 times), intact mitochondria were then pelleted at 10,000 g for 20 minutes at 4°C. […] This volume was transferred to conical 1.5 ml tubes and re-centrifuged, 10,000 g for 10 minutes at 4°C. […] Mitochondrial suspensions were brought to a final concentration of 10 mg ml^−1 in extraction buffer and stored at −80°C until used.
Mitochondrial suspensions were incubated at 30°C for 30 minutes in extraction buffer supplemented with 10 mM succinate prior to enzymatic measurements.
A reaction plate was equilibrated for 10 minutes at 30°C before starting the reaction. DCPIP reduction was conducted at 30°C and monitored at 595 nm using a HTS7000 microtiterplate reader (Perkin Elmer). For calculations a molecular extinction coefficient of ε = 17 mM^−1 cm^−1 was used.
Inhibitor concentrations ranged between 1 mM and 0.95 nM with uniform 4× dilution factor steps (11 inhibitor concentrations+DMSO control). 96 wells plates were pre equilibrated at reaction temperature (30°C) for 10 minutes before the reactions were started by the addition of 5 µl preactivated M. graminicola mitochondrial suspension. Calculated absorbance slopes (OD/hour) were used for IC50 calculations using Graphpad Prism 5.0 software non linear curve fitting against log inhibitor concentrations.

[3] = system: wild type IPO323 M. graminicola strain; format: cell-based, Mycosphaerella graminicola; settings: minimal concentration to fully inhibit growth of WT IPO323, AE agar, 10^7 cells, 2 weeks at 20°C in the dark
Source text: Selection plates were produced after adding 1% of a 100× DMSO solution of the active ingredients to pre-melted AE-agar.

succinate dehydrogenase (SDH), WT (IPO323), sequence (F9XG45 entry or part of it): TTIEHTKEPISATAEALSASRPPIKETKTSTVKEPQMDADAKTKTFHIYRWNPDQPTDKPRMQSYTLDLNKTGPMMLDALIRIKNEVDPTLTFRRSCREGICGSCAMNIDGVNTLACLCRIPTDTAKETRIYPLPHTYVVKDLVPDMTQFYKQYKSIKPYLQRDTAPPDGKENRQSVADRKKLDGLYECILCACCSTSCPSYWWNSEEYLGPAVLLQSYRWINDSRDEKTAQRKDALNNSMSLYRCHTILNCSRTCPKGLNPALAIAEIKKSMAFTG
succinate dehydrogenase (SDH), WT (IPO323), sequence (F9X9V6 entry or part of it): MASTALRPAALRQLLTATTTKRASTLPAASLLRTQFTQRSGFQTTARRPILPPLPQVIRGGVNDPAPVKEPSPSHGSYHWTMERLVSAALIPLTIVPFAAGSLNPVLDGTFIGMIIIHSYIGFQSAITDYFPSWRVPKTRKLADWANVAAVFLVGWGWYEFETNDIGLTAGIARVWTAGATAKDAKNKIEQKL
succinate dehydrogenase (SDH), WT (IPO323), sequence (F9XH52 entry or part of it): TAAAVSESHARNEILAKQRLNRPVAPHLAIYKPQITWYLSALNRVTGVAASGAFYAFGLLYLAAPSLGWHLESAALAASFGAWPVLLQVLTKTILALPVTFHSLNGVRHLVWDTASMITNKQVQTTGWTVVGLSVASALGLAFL

CC(C)C1C2CCC1c1c(NC(=O)c3cn(C)nc3C(F)F)cccc12 (stereo not shown) [Isopyrazam]
Resistance Factors (RFs) in vivo ([1]; None, IPO323, ratio IC50mutant/IC50WT): 1 | IC50 ([1]; Zymoseptoria tritici, WT (IPO323), liquid culture growth, ±S.E. (triplicate), read-out: IC50 in vivo): 55 ± 2 nM | IC50 [2]: 5 ± 0.3 nM | Minimal selective concentration (MSC) [3]: Isopyrazam 3 µM (MSC)
